By IC50 is commonly meant the concentration that gives 50% inhibition.

The target in this assay is T1, human capsaicin receptor (Homo sapiens, UniProt Q8NER1).
T1 construct: pBK-CMV expression construct encoding the full length human capsaicin receptor; expressed in transfected cells
Briefly: Calcium mobilization assay, determination of antagonist activity (Example 6). In kind it is cell-based. As to conditions: determined as described in Example 6 (calcium mobilization, antagonist activity); Table II. Put shortly:
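HEK293 clonal lines stably expressing full-length human capsaicin receptor, loaded with Fluo-3 AM in KRH buffer pH 7.4, 1–2 h at 37 °C. Compounds (1–5 μM final) preincubated 0.5–6 h at room temperature, then capsaicin at its EC50 added. FLIPR/Fluoroskan calcium signal; IC50 as 50% decrease of capsaicin response.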
(A change in cytosolic calcium serves as a functional read-out for many receptors and channels.)

T1 sequence (Q8NER1 whole entry): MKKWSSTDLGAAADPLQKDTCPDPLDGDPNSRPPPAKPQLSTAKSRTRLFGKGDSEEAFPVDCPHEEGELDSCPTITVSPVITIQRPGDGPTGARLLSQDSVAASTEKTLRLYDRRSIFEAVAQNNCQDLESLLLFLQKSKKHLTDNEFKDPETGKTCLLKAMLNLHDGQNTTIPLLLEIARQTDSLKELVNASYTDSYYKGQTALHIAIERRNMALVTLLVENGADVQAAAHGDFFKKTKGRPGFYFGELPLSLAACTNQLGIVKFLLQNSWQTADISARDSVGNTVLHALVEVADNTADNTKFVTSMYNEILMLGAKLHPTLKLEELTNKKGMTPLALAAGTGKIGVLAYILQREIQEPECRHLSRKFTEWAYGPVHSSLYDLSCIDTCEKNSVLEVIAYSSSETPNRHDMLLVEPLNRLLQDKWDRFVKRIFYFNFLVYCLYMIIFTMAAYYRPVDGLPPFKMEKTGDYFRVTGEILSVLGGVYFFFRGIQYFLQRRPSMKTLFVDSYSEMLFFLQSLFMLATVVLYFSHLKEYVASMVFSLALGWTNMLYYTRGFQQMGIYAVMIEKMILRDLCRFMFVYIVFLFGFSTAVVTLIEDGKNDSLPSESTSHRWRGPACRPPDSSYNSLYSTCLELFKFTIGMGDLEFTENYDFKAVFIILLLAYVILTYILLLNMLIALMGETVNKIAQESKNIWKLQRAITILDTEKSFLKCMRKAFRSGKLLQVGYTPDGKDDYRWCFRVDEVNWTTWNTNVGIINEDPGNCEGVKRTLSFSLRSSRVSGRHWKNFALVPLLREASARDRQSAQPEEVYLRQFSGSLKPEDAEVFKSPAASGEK

Turning to `CC(C)c1cc(-c2cc(N3CCN(c4ncccc4C(F)(F)F)CC3)nc(N3CCOCC3)n2)ccn1` [Example 592, 4-(4-(2-isopropylpyridin-4-yl)-6-{4-[3-(trifluoromethyl)pyridin-2-yl]piperazin-1-yl}pyrimidin-2-yl)morpholine], the IC50 is ≤ 1 µM. Then `FC(F)(F)c1cccnc1N1CCN(c2cc(-c3cncc(Cl)c3)nc(N3CCOCC3)n2)CC1` [Example 593, 4-(4-(5-chloropyridin-3-yl)-6-{4-[3-(trifluoromethyl)pyridin-2-yl]piperazin-1-yl}pyrimidin-2-yl)morphotine], with ≤ 1 µM; and `CCN(CC)c1nc(-c2ccc(F)c(C)c2)cc(N2CCN(c3ncccc3C(F)(F)F)CC2)n1` [Example 594, N,N-diethyl-4-(4-fluoro-3-methylphenyl)-6-{4-[3-(trifluoromethyl)pyridin-2-yl]piperazin-1-yl}pyrimidin-2-amine], with ≤ 1 µM. The same measure for `CCN(CC)c1nc(-c2cncc(Cl)c2)cc(N2CCN(c3ncccc3C(F)(F)F)CC2)n1` [Example 595, 4-(5-chloropyridin-3-yl)-N,N-diethyl-6-{4-[3-(trifluoromethyl)pyridin-2-yl]piperazin-1-yl}pyrimidin-2-amine]: ≤ 1 µM; for `CCN(CC)c1nc(-c2ccc(F)c(F)c2)cc(N2CCN(c3ncccc3C(F)(F)F)CC2)n1` [Example 596, 4-(3,4-difluorophenyl)-N,N-diethyl-6-{4-[3-(trifluoromethyl)pyridin-2-yl]piperazin-1-yl}pyrimidin-2-amine]: ≤ 1 µM; for `CCN(CC)c1nc(-c2cccc(Cl)c2)cc(N2CCN(c3ncccc3C(F)(F)F)CC2)n1` [Example 597, 4-(3-chlorophenyl)-N,N-diethyl-6-{4-[3-(trifluoromethyl)pyridin-2-yl]piperazin-1-yl}pyrimidin-2-amine]: ≤ 1 µM. The same measure for `CC(C)N1CCN(c2nc(-c3ccc(F)c(Cl)c3)cc(N3CCN(c4ncccc4C(F)(F)F)CC3)n2)CC1` [Example 598, 4-(3-chloro-4-fluorophenyl)-2-(4-isopropylpiperazin-1-yl)-6-{4-[3-(trifluoromethyl)pyridin-2-yl]piperazin-1-yl}pyrimidine]: ≤ 1 µM. In the case of `CC(C)N(C)c1nc(-c2ccc(F)c(Cl)c2)cc(N2CCN(c3ncccc3C(F)(F)F)CC2)n1` [Example 600, 4-(3-chloro-4-fluorophenyl)-N-isopropyl-N-methyl-6-{4-[3-(trifluoromethyl)pyridin-2-yl]piperazin-1-yl}pyrimidin-2-amine], the IC50 was ≤ 1 µM. Then `CCN(c1nc(-c2ccc(F)c(Cl)c2)cc(N2CCN(c3ncccc3C(F)(F)F)CC2)n1)C(C)C` [Example 601, 4-(3-chloro-4-fluorophenyl)-N-ethyl-N-isopropyl-6-{4-[3-(trifluoromethyl)pyridin-2-yl]piperazin-1-yl}pyrimidin-2-amine], with ≤ 1 µM; and `Fc1ccc(-c2cc(N3CCN(c4ncccc4C(F)(F)F)CC3)nc(N3CCCCC3)n2)cc1Cl` [Example 602, 4-(3-chloro-4-fluorophenyl)-2-piperidin-1-yl-6-{4-[3-(trifluoromethyl)pyridin-2-yl]piperazin-1-yl}pyrimidine], with ≤ 1 µM. In the case of `Fc1ccc(-c2cc(N3CCN(c4ncccc4C(F)(F)F)CC3)nc(N3CCCC3)n2)cc1Cl` [Example 603, 4-(3-chloro-4-fluorophenyl)-2-pyrrolidin-1-yl-6-{4-[3-(trifluoromethyl)pyridin-2-yl]piperazin-1-yl}pyrimidine], the 50% inhibitory concentration (IC50) was ≤ 1 µM. Take `CCN(CC)c1nc(-c2cccc(C)c2)cc(N2CCN(c3ncccc3C(F)(F)F)CC2)n1` [Example 604, N,N-diethyl-4-(3-methylphenyl)-6-{4-[3-(trifluoromethyl)pyridin-2-yl]piperazin-1-yl}pyrimidin-2-amine]: the IC50 was ≤ 1 µM.

Take `CC(C)c1nc(-c2ccc(F)c(Cl)c2)cc(N2CCN(c3ncccc3C(F)(F)F)CC2)n1` [Example 605, 4-(3-chloro-4-fluorophenyl)-2-isopropyl-6-{4-[3-(trifluoromethyl)pyridin-2-yl]piperazin-1-yl}pyrimidine]: the IC50 is ≤ 1 µM. As to `Cc1ccc(-c2cc(N3CCN(c4ncccc4C(F)(F)F)CC3)nc(N3CCOCC3)n2)cn1` [Example 606, 4-(4-(6-methylpyridin-3-yl)-6-{4-[3-(trifluoromethyl)pyridin-2-yl]piperazin-1-yl}pyrimidin-2-yl)morpholine], the IC50 was ≤ 1 µM.

As for `CCN(CC)c1nc(-c2ccc(C)nc2)cc(N2CCN(c3ncccc3C(F)(F)F)CC2)n1` [Example 607, N,N-diethyl-4-(6-methylpyridin-3-yl)-6-{4-[3-(trifluoromethyl)pyridin-2-yl]piperazin-1-yl}pyrimidin-2-amine], the IC50 is ≤ 1 µM. Then `FC(F)(F)c1cccnc1N1CCN(c2cc(-c3ccc(N4CCCC4)c(Cl)c3)nc(N3CCCC3)n2)CC1` [Example 608, 4-(3-chloro-4-pyrrolidin-1-ylphenyl)-2-pyrrolidin-1-yl-6-{4-[3-(trifluoromethyl)pyridin-2-yl]piperazin-1-yl}pyrimidine], with ≤ 1 µM; and `CC1CCCN1c1nc(-c2ccc(F)c(Cl)c2)cc(N2CCN(c3ncccc3C(F)(F)F)CC2)n1` (stereo not drawn) [Example 609, 4-(3-chloro-4-fluorophenyl)-2-(2-methylpyrrolidin-1-yl)-6-{4-[3-(trifluoromethyl)pyridin-2-yl]piperazin-1-yl}pyrimidine], with ≤ 1 µM.

Consider `OC[C@H]1CCCN1c1nc(-c2ccc(F)c(Cl)c2)cc(N2CCN(c3ncccc3C(F)(F)F)CC2)n1` [Example 610, [(2R)-1-(4-(3-chloro-4-fluorophenyl)-6-{4-[3-(trifluoromethyl)pyridin-2-yl]piperazin-1-yl}pyrimidin-2-yl)pyrrolidin-2-yl]methanol], for which the IC50 was ≤ 1 µM. For the molecule `CC1CCCCN1c1nc(-c2ccc(F)c(Cl)c2)cc(N2CCN(c3ncccc3C(F)(F)F)CC2)n1` (stereo not drawn) [Example 611, 4-(3-chloro-4-fluorophenyl)-2-(2-methylpiperidin-1-yl)-6-{4-[3-(trifluoromethyl)pyridin-2-yl]piperazin-1-yl}pyrimidine], the IC50 is ≤ 1 µM. In the case of `CC1(C)CCCN(c2nc(-c3ccc(F)c(Cl)c3)cc(N3CCN(c4ncccc4C(F)(F)F)CC3)n2)C1` [Example 612, 4-(3-chloro-4-fluorophenyl)-2-(3,3-dimethylpiperidin-1-yl)-6-{4-[3-(trifluoromethyl)pyridin-2-yl]piperazin-1-yl}pyrimidine], the IC50 was ≤ 1 µM. Consider `CCC1CCCCN1c1nc(-c2ccc(F)c(Cl)c2)cc(N2CCN(c3ncccc3C(F)(F)F)CC2)n1` (stereo not drawn) [Example 613, 4-(3-chloro-4-fluorophenyl)-2-(2-ethylpiperidin-1-yl)-6-{4-[3-(trifluoromethyl)pyridin-2-yl]piperazin-1-yl}pyrimidine], for which the IC50 was ≤ 1 µM. Then `CC1CN(c2nc(-c3ccc(F)c(Cl)c3)cc(N3CCN(c4ncccc4C(F)(F)F)CC3)n2)CCN1` (stereo not drawn) [Example 614, 4-(3-chloro-4-fluorophenyl)-2-(3-methylpiperazin-1-yl)-6-{4-[3-(trifluoromethyl)pyridin-2-yl]piperazin-1-yl}pyrimidine], with ≤ 1 µM; and `CC(C)CN(C)c1nc(-c2ccc(F)c(Cl)c2)cc(N2CCN(c3ncccc3C(F)(F)F)CC2)n1` [Example 615, 4-(3-chloro-4-fluorophenyl)-N-isobuty-methyl-6-{4-[3-(trifluoromethyl)pyridin-2-yl]piperazin-1-yl}pyrimidin-2-amine], with ≤ 1 µM. The same measure for `Cc1cccnc1-c1nc(-c2ccc(F)c(Cl)c2)cc(N2CCN(c3ncccc3C(F)(F)F)CC2)n1` [Example 616, 4-(3-chloro-4-fluorophenyl)-2-(3-methylpyridin-2-yl)-6-{4-[3-(trifluoromethyl)pyridin-2-yl]piperazin-1-yl}pyrimidine]: ≤ 1 µM; for `Fc1ccc(-c2cc(N3CCN(c4ncccc4C(F)(F)F)CC3)nc(-c3ccncc3)n2)cc1Cl` [Example 617, 4-(3-chloro-4-fluorophenyl)-2-pyridin-4-yl-6-{4-[3-(trifluoromethyl)pyridin-2-yl]piperazin-1-yl}pyrimidine]: ≤ 1 µM. Turning to `CC(C)c1nccn1-c1nc(-c2cccc(Cl)c2)cc(N2CCN(c3ncccc3C(F)(F)F)CC2)n1` [Example 618, 4-(3-chlorophenyl)-2-(2-isopropyl-1H-imidazol-1-yl)-6-{4-[3-(trifluoromethyl)pyridin-2-yl]piperazin-1-yl}pyrimidine], the IC50 was ≤ 1 µM. The same measure for `CN(CC(=O)O)c1nc(-c2ccc(F)c(Cl)c2)cc(N2CCN(c3ncccc3C(F)(F)F)CC2)n1` [Example 619, N-(4-(3-chloro-4-fluorophenyl)-6-{4-[3-(trifluoromethyl)pyridin-2-yl]piperazin-1-yl}pyrimidin-2-yl)-N-methylglycine]: ≤ 1 µM; for `C[C@H](Nc1nc(-c2ccc(F)c(Cl)c2)cc(N2CCN(c3ncccc3C(F)(F)F)CC2)n1)C(=O)O` [Example 620, N-(4-(3-chloro-4-fluorophenyl)-6-{4-[3-(trifluoromethyl)pyridin-2-yl]piperazin-1-yl}pyrimidin-2-yl)alanine]: ≤ 1 µM; for `CCN1CCN(c2nc(-c3ccc(F)c(Cl)c3)cc(N3CCN(c4ncccc4C(F)(F)F)CC3)n2)CC1` [Example 623, 4-(3-chloro-4-fluorophenyl)-2-(4-ethylpiperazin-1-yl)-6-{4-[3-(trifluoromethyl)pyridin-2-yl]piperazin-1-yl}pyrimidine]: ≤ 1 µM. Regarding `Fc1ccc(-c2cc(N3CCN(c4ncccc4C(F)(F)F)CC3)nc(N3CCN(CC4CC4)CC3)n2)cc1Cl` [Example 624, 4-(3-chloro-4-fluorophenyl)-2-[4-(cyclopropylmethyl)piperazin-1-yl]-6-{4-[3-(trifluoromethyl)pyridin-2-yl]piperazin-1-yl}pyrimidine], the IC50 was ≤ 1 µM.

(Values after patent publication US7566712B2, “Biaryl piperazinyl-pyridine analogues” (Neurogen Corporation, priority 2003, dated 2009).)
